This note sets out measurements from US20130102595A1 (Curis, Inc., priority 2011, published 2013).

Series [1] relates to HDACs (HeLa cell nuclear extracts). The series is described as follows: HDAC enzymatic activity, Biomol Color de Lys system. To be noted: 1 hour, 25° C. Type of series: biochemical. In outline:
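IC50 from sigmoidal fit of developer-terminated fluorescence (ex 350-380/em 440-460 nm). Reaction: 1 h at room temperature (25 °C), HeLa nuclear extract as HDAC source, artificial substrate, buffer of 50 mM Tris/Cl pH 8.0 with 137 mM NaCl, 2.7 mM KCl and 1 mM MgCl2.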

The next series addresses T1, PI3Kα (p110α/p85α) (Homo sapiens, UniProt P42336).
T1 construct: GST (N); made in house; host or cells: Baculovirus-infected Sf9 cells
Nature of the series: PI3Kα ADP-Glo assay. It is filed as biochemical. To be noted: 20 μM PIP2, 10 μM ATP, 30 minutes. In outline:
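Luminescent ADP-Glo detection, after depletion of residual ATP, quantified ADP made by PI3Kα phosphorylating 20 μM PIP2 at 10 μM ATP. The kinase step ran 30 min at room temperature in HEPES pH 7.4 with MgCl2, DTT and orthovanadate, using baculovirus/Sf9-expressed full-length p110α/p85α complex.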

T1 sequence (P42336 whole entry): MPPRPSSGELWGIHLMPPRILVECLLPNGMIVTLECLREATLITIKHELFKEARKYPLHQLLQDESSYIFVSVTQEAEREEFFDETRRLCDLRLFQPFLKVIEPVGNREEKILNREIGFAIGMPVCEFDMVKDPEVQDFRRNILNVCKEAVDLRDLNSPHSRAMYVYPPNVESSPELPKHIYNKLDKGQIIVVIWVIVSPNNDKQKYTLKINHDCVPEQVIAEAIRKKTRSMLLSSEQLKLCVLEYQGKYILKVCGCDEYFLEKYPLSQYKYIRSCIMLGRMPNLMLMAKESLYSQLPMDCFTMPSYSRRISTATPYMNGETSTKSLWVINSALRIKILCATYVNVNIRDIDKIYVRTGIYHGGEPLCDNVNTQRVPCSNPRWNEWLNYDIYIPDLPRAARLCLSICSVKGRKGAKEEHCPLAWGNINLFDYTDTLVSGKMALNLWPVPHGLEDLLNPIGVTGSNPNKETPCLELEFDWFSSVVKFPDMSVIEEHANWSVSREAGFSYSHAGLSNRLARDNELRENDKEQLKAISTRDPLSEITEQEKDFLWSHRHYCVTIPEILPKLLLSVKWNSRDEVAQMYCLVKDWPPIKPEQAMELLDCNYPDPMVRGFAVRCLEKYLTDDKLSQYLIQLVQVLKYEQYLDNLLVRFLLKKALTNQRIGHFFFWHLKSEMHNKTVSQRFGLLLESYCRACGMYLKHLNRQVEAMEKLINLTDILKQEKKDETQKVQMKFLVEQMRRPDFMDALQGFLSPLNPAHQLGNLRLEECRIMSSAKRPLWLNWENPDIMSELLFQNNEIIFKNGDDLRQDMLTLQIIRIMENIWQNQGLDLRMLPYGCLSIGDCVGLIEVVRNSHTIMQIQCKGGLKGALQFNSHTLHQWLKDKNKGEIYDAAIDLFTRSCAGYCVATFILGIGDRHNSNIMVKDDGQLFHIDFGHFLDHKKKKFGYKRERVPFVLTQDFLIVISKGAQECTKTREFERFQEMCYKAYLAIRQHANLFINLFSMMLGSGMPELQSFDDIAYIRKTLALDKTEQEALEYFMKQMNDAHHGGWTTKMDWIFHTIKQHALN
T1 sequence (P27986 whole entry partner): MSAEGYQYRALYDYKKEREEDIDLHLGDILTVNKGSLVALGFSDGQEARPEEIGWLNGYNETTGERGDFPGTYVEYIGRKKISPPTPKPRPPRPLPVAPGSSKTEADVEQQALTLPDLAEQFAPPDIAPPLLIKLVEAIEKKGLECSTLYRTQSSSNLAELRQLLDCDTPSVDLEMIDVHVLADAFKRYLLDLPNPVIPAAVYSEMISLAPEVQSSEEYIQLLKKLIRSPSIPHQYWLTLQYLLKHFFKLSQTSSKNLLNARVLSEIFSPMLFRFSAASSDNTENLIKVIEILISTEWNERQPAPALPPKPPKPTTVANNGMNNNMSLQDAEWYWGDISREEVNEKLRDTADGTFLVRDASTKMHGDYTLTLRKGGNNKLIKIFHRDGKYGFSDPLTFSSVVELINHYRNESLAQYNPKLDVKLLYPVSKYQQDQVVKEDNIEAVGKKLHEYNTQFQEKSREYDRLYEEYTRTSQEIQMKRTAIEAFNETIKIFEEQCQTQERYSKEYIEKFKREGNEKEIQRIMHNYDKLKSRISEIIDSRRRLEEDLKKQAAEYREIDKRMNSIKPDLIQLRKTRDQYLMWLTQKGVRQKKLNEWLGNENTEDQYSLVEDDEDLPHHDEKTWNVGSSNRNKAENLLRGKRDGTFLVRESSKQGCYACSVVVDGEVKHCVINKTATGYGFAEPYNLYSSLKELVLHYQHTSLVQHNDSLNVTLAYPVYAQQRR

In general, IC50 refers to the concentration that gives 50% inhibition. Usually melting point stands for the temperature of the solid-liquid transition. Regarding `CS(=O)(=O)N1CCN(Cc2cc3nc(-c4cccc5[nH]ncc45)nc(N4CCN(CCCCCC(=O)NO)CC4)c3s2)CC1` [Compound 31, 6-(4-(2-(1H-indazol-4-yl)-6-((4-(methylsulfonyl)piperazin-1-yl)methyl)thieno[3,2-d]pyrimidin-4-yl)piperazin-1-yl)-N-hydroxyhexanamide], the melting point is 140 to 145 °C. The compound also returned a half-inhibitory concentration (IC50) in series [1] of 100 to 1000 nM. Also, the half-inhibitory concentration (IC50) against PI3Kα (p110α/p85α) is over 10000 nM.
The compound `CS(=O)(=O)N1CCN(Cc2cc3nc(-c4cccc5[nH]ncc45)nc(N4CCN(CCCCCCC(=O)NO)CC4)c3s2)CC1` [Compound 32, 7-(4-(2-(1H-indazol-4-yl)-6-((4-(methylsulfonyl)piperazin-1-yl)methyl)thieno[3,2-d]pyrimidin-4-yl)piperazin-1-yl)-N-hydroxyheptanamide] returned a melting point of 131 to 134 °C. The IC50 in series [1] lay within 100 to 1000 nM. The IC50 against PI3Kα (p110α/p85α) was over 10000 nM.
On the same counts, the results for `O=C(CCCNCc1cc2nc(-c3cccc4[nH]ncc34)nc(N3CCOCC3)c2s1)NO` [Compound 41, 4-((2-(1H-indazol-4-yl)-4-morpholinothieno[3,2-d]pyrimidin-6-yl)methylamino)-N-hydroxybutanamide] are 149 to 152 °C, under 100 nM and 100 to 1000 nM.
On the same counts, the results for `O=C(CCCCNCc1cc2nc(-c3cccc4[nH]ncc34)nc(N3CCOCC3)c2s1)NO` [Compound 42, 5-((2-(1H-indazol-4-yl)-4-morpholinothieno[3,2-d]pyrimidin-6-yl)methylamino)-N-hydroxypentanamide] are 145 to 147 °C, under 100 nM and 1000 to 10000 nM.
The compound `O=C(CCCCCCNCc1cc2nc(-c3cccc4[nH]ncc34)nc(N3CCOCC3)c2s1)NO` [Compound 44, 7-((2-(1H-indazol-4-yl)-4-morpholinothieno[3,2-d]pyrimidin-6-yl)methylamino)-N-hydroxyheptanamide] registered a melting point of 188 to 190 °C. In series [1], this compound had an IC50 of 100 to 1000 nM. The compound also had an IC50 on PI3Kα (p110α/p85α) of under 100 nM.
On the same counts, the results for `O=C(NO)c1ccc(NCc2cc3nc(-c4cccc5[nH]ncc45)nc(N4CCOCC4)c3s2)nc1` [Compound 76, 6-((2-(1H-indazol-4-yl)-4-morpholinothieno[3,2-d]pyrimidin-6-yl)methylamino)-N-hydroxynicotinamide] are 218 to 220 °C, under 100 nM and under 100 nM.
On the same counts, the results for `O=C(NO)c1ccc(NCc2cc3nc(-c4cccc5[nH]ncc45)nc(N4CCOCC4)c3s2)cc1` [Compound 78, 4-((2-(1H-indazol-4-yl)-4-morpholinothieno[3,2-d]pyrimidin-6-yl)methylamino)-N-hydroxybenzamide] are 180 to 183 °C, under 100 nM and 100 to 1000 nM.
For `O=C(/C=C/c1ccc(NCc2cc3nc(-c4cccc5[nH]ncc45)nc(N4CCOCC4)c3s2)cc1)NO` [Compound 80, (E)-3-(4-((2-(1H-indazol-4-yl)-4-morpholinothieno[3,2-d]pyrimidin-6-yl)methylamino)phenyl)-N-hydroxyacrylamide], the melting point is over 300 °C. In series [1], the half-maximal inhibitory concentration (IC50) was in the range of 100 to 1000 nM. The compound further returned an IC50 on PI3Kα (p110α/p85α) of under 100 nM.
For `CN(Cc1cc2nc(-c3cccc4[nH]ncc34)nc(N3CCOCC3)c2s1)c1ccc(/C=C/C(=O)NO)cc1` [Compound 81, (E)-3-(4-(((2-(1H-indazol-4-yl)-4-morpholinothieno[3,2-d]pyrimidin-6-yl)methyl)(methyl)amino)phenyl)-N-hydroxyacrylamide], in that order: 188 to 190 °C, 1000 to 10000 nM and under 100 nM.
On the same counts, the results for `CC(C)(C)CN(Cc1cc2nc(-c3cccc4[nH]ncc34)nc(N3CCOCC3)c2s1)c1ncc(C(=O)NO)cn1` [Compound 83, 2-(((2-(1H-indazol-4-yl)-4-morpholinothieno[3,2-d]pyrimidin-6-yl)methyl)(neopentyl)amino)-N-hydroxypyrimidine-5-carboxamide] are 240 to 242 °C, 1000 to 10000 nM and 100 to 1000 nM.
Take `CCCN(Cc1cc2nc(-c3cccc4[nH]ncc34)nc(N3CCOCC3)c2s1)c1ncc(C(=O)NO)cn1` [Compound 84, 2-(((2-(1H-indazol-4-yl)-4-morpholinothieno[3,2-d]pyrimidin-6-yl)methyl)(propyl)amino)-N-hydroxypyrimidine-5-carboxamide]: the melting point was 224 to 226 °C. Moreover, the IC50 in series [1] is under 100 nM. Also, the IC50 at PI3Kα (p110α/p85α) was under 100 nM.
In the case of `CCCCN(Cc1cc2nc(-c3cccc4[nH]ncc34)nc(N3CCOCC3)c2s1)c1ncc(C(=O)NO)cn1` [Compound 85, 2-(((2-(1H-indazol-4-yl)-4-morpholinothieno[3,2-d]pyrimidin-6-yl)methyl)(butyl)amino)-N-hydroxypyrimidine-5-carboxamide], the melting point is 234 to 236 °C. This compound registered an IC50 in series [1] of under 100 nM. The compound further gave an IC50 at PI3Kα (p110α/p85α) of 100 to 1000 nM.
For `CC(C)CN(Cc1cc2nc(-c3cccc4[nH]ncc34)nc(N3CCOCC3)c2s1)c1ncc(C(=O)NO)cn1` [Compound 93, 2-(((2-(1H-indazol-4-yl)-4-morpholinothieno[3,2-d]pyrimidin-6-yl)methyl)(isobutyl)amino)-N-hydroxypyrimidine-5-carboxamide], in that order: 196 to 198 °C, 100 to 1000 nM and 100 to 1000 nM.
As for `CN(CCCCCC(=O)NO)Cc1cc2nc(-c3cccc4[nH]ncc34)nc(N3CCOCC3)c2s1` [Compound 103, 6-(((2-(1H-indazol-4-yl)-4-morpholinothieno[3,2-d]pyrimidin-6-yl)methyl)(methyl)amino)-N-hydroxyhexanamide], the melting point was 115 to 118 °C. In series [1], this compound gave an IC50 of under 100 nM. The compound also registered a half-inhibitory concentration (IC50) at PI3Kα (p110α/p85α) of 100 to 1000 nM.
The compound `CN(CCCCCCC(=O)NO)Cc1cc2nc(-c3cccc4[nH]ncc34)nc(N3CCOCC3)c2s1` [Compound 104, 7-(((2-(1H-indazol-4-yl)-4-morpholinothieno[3,2-d]pyrimidin-6-yl)methyl)(methyl)amino)-N-hydroxyheptanamide] displayed a melting point of 131 to 133 °C. Also, the IC50 in series [1] lay in the range of 100 to 1000 nM. The IC50 at PI3Kα (p110α/p85α) is under 100 nM.
For `CC(=O)Nc1cccc(-c2nc(N3CCOCC3)c3sc(CN(C)c4ncc(C(=O)NO)cn4)cc3n2)c1` [Compound 107, 2-(((2-(3-acetamidophenyl)-4-morpholinothieno[3,2-d]pyrimidin-6-yl)methyl)(methyl)amino)-N-hydroxypyrimidine-5-carboxamide], in that order: 183 to 185 °C, under 100 nM and 1000 to 10000 nM.
For `CN(C)c1cccc(-c2nc(N3CCOCC3)c3sc(CN(C)c4ncc(C(=O)NO)cn4)cc3n2)c1` [Compound 108, 2-(((2-(3-(dimethylamino)phenyl)-4-morpholinothieno[3,2-d]pyrimidin-6-yl)methyl)(methyl)amino)-N-hydroxypyrimidine-5-carboxamide], in that order: 172 to 175 °C, under 100 nM and 1000 to 10000 nM.
For `CN(C)c1ccc(-c2nc(N3CCOCC3)c3sc(CN(C)c4ncc(C(=O)NO)cn4)cc3n2)cn1` [Compound 114, 2-(((2-(6-(dimethylamino)pyridin-3-yl)-4-morpholinothieno[3,2-d]pyrimidin-6-yl)methyl)(methyl)amino)-N-hydroxypyrimidine-5-carboxamide], in that order: 190 to 195 °C, under 100 nM and 100 to 1000 nM.
Consider `CN(Cc1cc2nc(-c3cncnc3)nc(N3CCOCC3)c2s1)c1ncc(C(=O)NO)cn1` [Compound 119, N-hydroxy-2-(methyl((4-morpholino-2-(pyrimidin-5-yl)thieno[3,2-d]pyrimidin-6-yl)methyl)amino)pyrimidine-5-carboxamide], for which the melting point was in the range of 159 to 160 °C. Further, in series [1], the IC50 is under 100 nM. The same compound showed an IC50 on PI3Kα (p110α/p85α) of under 100 nM.
The compound `CN(Cc1cc2nc(-c3cnc(CN)nc3)nc(N3CCOCC3)c2s1)c1ncc(C(=O)NO)cn1` [Compound 124, 2-(((2-(2-(aminomethyl)pyrimidin-5-yl)-4-morpholinothieno[3,2-d]pyrimidin-6-yl)methyl)(methyl)amino)-N-hydroxypyrimidine-5-carboxamide] yielded a melting point of over 300 °C. Besides, the half-maximal inhibitory concentration (IC50) in series [1] was under 100 nM. For the same compound, the IC50 on PI3Kα (p110α/p85α) was under 100 nM.
For `CN(Cc1cc2nc(-c3ccccc3)nc(N3CCOCC3)c2s1)c1ncc(C(=O)NO)cn1` [Compound 129, N-hydroxy-2-(methyl((4-morpholino-2-phenylthieno[3,2-d]pyrimidin-6-yl)methyl)amino)pyrimidine-5-carboxamide], the melting point was in the range of 199 to 200 °C. The compound further yielded an IC50 in series [1] of under 100 nM. Moreover, at PI3Kα (p110α/p85α), the IC50 was over 10000 nM.
For `COc1cccc(-c2nc(N3CCOCC3)c3sc(CN(C)c4ncc(C(=O)NO)cn4)cc3n2)c1` [Compound 130, N-hydroxy-2-(((2-(3-methoxyphenyl)-4-morpholinothieno[3,2-d]pyrimidin-6-yl)methyl)(methyl)amino)pyrimidine-5-carboxamide], in that order: 179 to 181 °C, under 100 nM and 100 to 1000 nM.
